What was measured:
[1] = rat, in vivo, sc; cited from earlier work
Procedure: The IVIVC model development in this study was carried out using Berkeley Madonna (program version 8.3.14). Differences in PK profiles by formulations were evaluated by adding a release compartment to reflect the release characteristic.

[2] = Solvent selection for the drug phase: dissolution of leuprolide; type: physicochemical
Text: Solubility, viscosity, spray pattern, and density of polymer solution were investigated using four solvents (methylene chloride, acetonitrile, ethyl acetate, and acetone), and the optimal solvent was selected from among these. Parameters including dissolution of the leuprolide, miscibility with the solvent of polymer phase, drying degree of dry matter, and density of drug solution were investigated using three solvents (water, ethanol, and methanol), and the optimal solvent was selected.

- Dissolution of Leuprolide ([2]; solvent methanol): high solubility
- Dissolution of Leuprolide ([2]; solvent water): high solubility
Compound: CCNC(=O)[C@@H]1CCCN1C(=O)[C@H](CCCNC(=N)N)NC(=O)[C@H](CC(C)C)NC(=O)[C@@H](CC(C)C)NC(=O)[C@H](Cc1ccc(O)cc1)NC(=O)[C@H](CO)NC(=O)[C@H](Cc1c[nH]c2ccccc12)NC(=O)[C@H](Cc1c[nH]cn1)NC(=O)[C@@H]1CCC(=O)N1 [leuprolide]
- CL (clearance) [1]: 514.46 mL/h
- Vd (volume of distribution) [1]: 487.40 mL
- ka (absorption rate constant) [1]: 16.67 h⁻¹
- Dissolution of Leuprolide ([2]; solvent ethanol): dissolves leuprolide slowly, and the drug easily precipitated

— paper PMC7022573, “Development of Level A In Vitro–Vivo Correlation for Electrosprayed Microspheres Containing Leuprolide: Physicochemical, Pharmacokinetic, and Pharmacodynamic Evaluation” (Pharmaceutics, 2020)
